Data set [1] in a line: Optical characteristics, Table 3. The class given is physicochemical. The conditions noted are these: for λmax, fl: 0.1 M phosphate buffer (pH 9) containing 1% DMSO; for Φfl: 0.1 M phosphate buffer (pH 9), 1% DMSO, standard 2-Me TokyoMagenta (0.42); for λmax, abs: 0.1 M phosphate buffer containing 1% DMSO.
Method: The measurement was performed in a 0.1 M phosphate buffer (pH 9) containing 1% DMSO. pKa was obtained from the absorbance measured in a phosphate buffer (pH 9) by single-phase or two-phase curve fitting. The quantum yield was obtained by using the quantum yield of 2-Me TokyoMagenta (0.42) in a 0.1 M phosphate buffer (pH 9) as the standard.
A short description of data set [2]: Optical characteristics, Table 2. The class given is physicochemical. The following applies: phosphate buffer (pH 9). The procedure:
The measurement was performed at pH 9.

Data set [3] is described as follows: Comparison of absorption wavelengths at pH 3 and 9 in sodium phosphate buffer (Table 1). The format is physicochemical. More on the design: λmax: unit not given beside the values. The conditions noted are these: for λmax: sodium phosphate buffer. The procedure: The results of comparison of the absorption wavelengths of 2-Me TokyoMagenta and 2-Me TokyoGreen (9-(2′-methylphenyl)-xanthen-3-one) having oxygen atom at the 10-position of the xanthene ring are shown in FIG. 2 and Table 1. The measurement was performed at pH 3 and 9 in a sodium phosphate buffer.

In data set [4] the target is T1, β-galactosidase (Escherichia coli, UniProt P00722). The data set is described as follows: Absorption spectra before and after treatment with β-galactosidase. The conditions noted are these: 0.1 M sodium phosphate buffer (pH 7.0), 0.1% DMSO. The format is biochemical. The procedure: The characteristics of 2-Me TokyoMagenta βgal, which was designed as a fluorescent probe for β-galactosidase measurement, as an enzyme substrate and a fluorescent probe were evaluated. There are shown absorption spectra (FIG. 3, upper left graph) and fluorescence spectra (FIG. 3, upper right graph (excitation wavelength, 582 nm) and FIG. 3, lower left graph (excitation wavelength, 448 nm)) of 2-Me TokyoMagenta βgal measured before and after a treatment with β-galactosidase (6 units) in a 0.1 M sodium phosphate buffer (pH 7.0) containing 0.1% dimethyl sulfoxide. The λmax values measured before and after the reaction were 448 nm (before the reaction), and 582 nm (after the reaction), respectively.
Target sequence in this assay (P00722 2-1024): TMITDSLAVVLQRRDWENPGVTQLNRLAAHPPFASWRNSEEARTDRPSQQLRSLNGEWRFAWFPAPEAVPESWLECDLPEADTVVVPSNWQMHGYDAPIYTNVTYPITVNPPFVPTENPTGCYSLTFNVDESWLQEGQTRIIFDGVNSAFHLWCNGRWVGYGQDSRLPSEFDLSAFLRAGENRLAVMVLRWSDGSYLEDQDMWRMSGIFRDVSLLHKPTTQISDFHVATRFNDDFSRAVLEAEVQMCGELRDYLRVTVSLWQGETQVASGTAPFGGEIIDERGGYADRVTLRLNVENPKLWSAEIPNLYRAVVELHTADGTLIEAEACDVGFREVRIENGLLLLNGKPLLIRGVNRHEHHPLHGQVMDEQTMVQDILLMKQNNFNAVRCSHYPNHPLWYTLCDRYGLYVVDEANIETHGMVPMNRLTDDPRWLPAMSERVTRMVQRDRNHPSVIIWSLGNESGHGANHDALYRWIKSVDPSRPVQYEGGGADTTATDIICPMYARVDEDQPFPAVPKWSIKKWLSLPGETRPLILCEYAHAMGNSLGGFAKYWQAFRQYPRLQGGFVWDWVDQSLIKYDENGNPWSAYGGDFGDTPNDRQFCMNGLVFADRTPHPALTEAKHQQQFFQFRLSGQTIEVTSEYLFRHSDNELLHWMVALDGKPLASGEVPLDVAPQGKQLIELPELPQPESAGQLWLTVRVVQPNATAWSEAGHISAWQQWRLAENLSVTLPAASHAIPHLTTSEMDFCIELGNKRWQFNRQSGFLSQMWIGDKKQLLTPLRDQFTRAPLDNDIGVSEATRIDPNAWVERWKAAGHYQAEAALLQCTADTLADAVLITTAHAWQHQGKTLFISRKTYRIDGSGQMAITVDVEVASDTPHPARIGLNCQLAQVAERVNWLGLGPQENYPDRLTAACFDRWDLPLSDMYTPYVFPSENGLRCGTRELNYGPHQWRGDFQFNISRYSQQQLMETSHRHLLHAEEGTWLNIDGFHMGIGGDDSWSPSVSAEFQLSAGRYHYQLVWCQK

In data set [5] the target is T1, β-galactosidase. In words: Hydrolysis reaction by β-galactosidase monitored by fluorescence intensity over time. The class given is biochemical. The following applies: 1 μM probe, 37° C., 0.1 M sodium phosphate buffer (pH 7.4), 0.1% DMSO, one unit β-galactosidase. The source says: As a control, 2-Me-4-OMe TokyoGreen βgal was used, which had been already widely used as a fluorescent probe for β-galactosidase measurement.
Advance of the hydrolysis reaction of 2-Me TokyoMagenta βgal by β-galactosidase was monitored by periodically measuring fluorescence intensity. As a control, 2-Me-4-OMe TokyoGreen βgal (9-(4′-methoxy-2′-methylphenyl)-6-(β-D-galactopyranosyloxy)-xanthen-3-one), which had been already widely used as a fluorescent probe for β-galactosidase measurement, was used. The reaction was performed at 37° C. in a 0.1 M sodium phosphate buffer (pH 7.4) containing 1 μM 2-Me TokyoMagenta βgal or 2-Me-4-OMe TokyoGreen βgal and 0.1% dimethyl sulfoxide. One unit (1.3 μg) of β-galactosidase was added 40 seconds afterward.
Target sequence in this assay (P00722 2-1024): as above

Data set [6] has as its target T1, β-galactosidase. The data set is described as follows: Measurement of intracellular β-galactosidase in HEK293 cells (lacZ(+) or lacZ(−)). The class given is cell-based. Set-up: expressed in transfected cells; host or cells: HEK293 lacZ(+). The conditions noted are these: 10 μM, 37° C., 30 minutes, excitation 580 nm, detection 600 to 620 nm. The protocol: The bars shown in the photographs indicate 30 μm.
2-Me TokyoMagenta βgal was introduced into cells, and it was confirmed that it functioned as a fluorescent probe for β-galactosidase measurement. The HEK293 cells (lacZ(+) or lacZ(−)) were incubated with 10 μM 2-Me TokyoMagenta βgal at 37° C. for 30 minutes in the Dulbecco's modified Eagle medium (DMEM) containing 0.1% dimethyl sulfoxide, and fluorescence spectrum was measured with an excitation wavelength of 580 nm and detection wavelength of 600 to 620 nm.
Target sequence in this assay (P00722 whole entry): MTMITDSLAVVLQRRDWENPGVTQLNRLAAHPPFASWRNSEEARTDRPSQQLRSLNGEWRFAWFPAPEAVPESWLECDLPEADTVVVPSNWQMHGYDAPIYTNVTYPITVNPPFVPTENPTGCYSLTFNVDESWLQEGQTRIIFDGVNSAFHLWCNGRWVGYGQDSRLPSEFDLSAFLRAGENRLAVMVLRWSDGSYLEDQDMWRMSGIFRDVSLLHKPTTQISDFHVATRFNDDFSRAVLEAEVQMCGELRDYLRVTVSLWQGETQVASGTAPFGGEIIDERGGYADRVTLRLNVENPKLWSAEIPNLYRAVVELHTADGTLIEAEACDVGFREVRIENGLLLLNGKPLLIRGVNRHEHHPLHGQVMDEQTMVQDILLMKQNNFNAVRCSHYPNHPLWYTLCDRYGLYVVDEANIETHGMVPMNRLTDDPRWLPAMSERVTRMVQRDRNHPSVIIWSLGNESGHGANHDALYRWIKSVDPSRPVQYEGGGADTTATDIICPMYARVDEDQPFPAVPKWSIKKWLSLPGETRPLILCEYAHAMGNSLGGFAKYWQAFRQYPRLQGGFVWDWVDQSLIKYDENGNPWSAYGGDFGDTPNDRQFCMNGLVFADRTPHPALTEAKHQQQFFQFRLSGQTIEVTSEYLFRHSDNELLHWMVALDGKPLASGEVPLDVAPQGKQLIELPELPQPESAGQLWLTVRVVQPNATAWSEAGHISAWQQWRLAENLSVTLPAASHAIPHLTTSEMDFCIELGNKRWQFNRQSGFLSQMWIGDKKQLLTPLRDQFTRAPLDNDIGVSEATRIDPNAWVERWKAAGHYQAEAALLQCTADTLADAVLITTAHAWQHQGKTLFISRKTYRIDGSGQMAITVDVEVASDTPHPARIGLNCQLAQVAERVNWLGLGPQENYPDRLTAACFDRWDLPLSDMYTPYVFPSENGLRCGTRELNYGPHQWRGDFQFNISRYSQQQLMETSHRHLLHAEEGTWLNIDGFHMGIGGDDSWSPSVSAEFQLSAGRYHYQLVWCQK

A short description of data set [7]: Absorption and fluorescence profiles at various pH values (Example 2). The class given is physicochemical. The following applies: for maximal absorption wavelength: 1 μM in 0.1 M phosphate buffer, 1% DMSO. The procedure:
The measurement was performed with changing pH. In this specification, Me means methyl group. […] The measurement was performed by using a 1 μM solution of 2-Me TokyoMagenta dissolved in a 0.1 M phosphate buffer containing 1% dimethyl sulfoxide (DMSO).
Absorption and fluorescence profiles of 2-Me TokyoMagenta obtained in the step (g) mentioned above were measured at various pH values. […] It is considered that 2-Me TokyoMagenta exists in an equilibrated state of the non-dissociated form (neutral form) and the dissociated form (anion form) mentioned below depending on pH.

A further data set is described as follows: physchem. The class given is physicochemical.
Data set [8] is described as follows: Fluorescence profiles at various pH values, excitation 471 nm (Example 6). The format is physicochemical. The conditions noted are these: shift of pH from the acidic side to the alkaline side. The procedure:
The measurement was performed with changing pH (excitation wavelength, 471 nm) by using a 1 μM solution of 2-Me TokyoMagenta dissolved in a 0.1 M phosphate buffer containing 1% dimethyl sulfoxide (DMSO).
Absorption and fluorescence profiles of 2-Me TokyoMagenta obtained in the step (g) mentioned above were measured at various pH values (excitation wavelength, 471 nm). It was confirmed that, with the shift of pH from the acidic side to the alkaline side, fluorescence intensity decreased around 590 nm, and fluorescence intensity increased around 560 nm.

Method for physchem: In the table, the items attached with the letter a were measured in a phosphate buffer (pH 9), and the item attached with the letter b was measured in a 0.1 M phosphate buffer containing 1% DMSO.
The measurement was performed in a 0.1 M phosphate buffer (pH 9) containing 1% DMSO. pKa was obtained from the absorbance measured in a phosphate buffer (pH 9) by single-phase or two-phase curve fitting.

Consider `C[Si]1(C)C2=C(Cl)C(=O)C=CC2=C(c2ccccc2C(=O)O)c2ccc(O)c(Cl)c21` [2-COOH DCTM], for which, in data set [1], the “λmax, fl” value was 607 nm and the Φfl is listed as 0.48. The “λmax, abs” value in data set [1] (pH 9) is reported as 591 nm.
As for `C[Si]1(C)C2=C(F)C(=O)C=CC2=C(c2ccccc2C(=O)O)c2ccc(O)c(F)c21` [2-COOH DFTM], in data set [1], the “λmax, fl” value is reported as 596 nm and the Φfl was determined as 0.54. In [1] (pH 9), the “λmax, abs” value was found to be 581 nm.
The corresponding values for `C[Si]1(C)C2=CC(=O)C=CC2=C(c2ccccc2C(=O)O)c2ccc(O)cc21` [2-COOH TM] are 598 nm, 0.38 and 582 nm.
On to `Cc1ccccc1C1=C2C=CC(=O)C(Cl)=C2[Si](C)(C)c2c1ccc(O)c2Cl` [2-Me DCTM], for which, in data set [1], the “λmax, fl” value was 607 nm. Moreover, the Φfl in [1] turned out to be 0.48. Further, the “λmax, abs” value is 477 nm in data set [1] (pH 3) and 595 nm in data set [1] (pH 9).
Regarding `Cc1ccccc1C1=C2C=CC(=O)C(F)=C2[Si](C)(C)c2c1ccc(O)c2F` [2-Me DFTM], in [1], the “λmax, fl” value is reported as 598 nm and the Φfl came out at 0.57. The “λmax, abs” value in data set [1] (pH 3) turned out to be 465 nm. The “λmax, abs” value in data set [1] (pH 9) stood at 583 nm.
In the case of `CC[Si]1(CC)C2=CC(=O)C=CC2=C(c2ccccc2C)c2ccc(O)cc21` [2-Me DiEtTM], in data set [2], the Φfl amounted to 0.48, the λabs worked out at 582 nm and the λfl was 601 nm.
For the molecule `Cc1ccccc1-c1c2ccc(=O)cc-2oc2ccccc12` [2-Me TokyoGreen, 9-(2′-methylphenyl)-xanthen-3-one, reference compound], the results for the λmax in data set [3] (Anion form (pH 9)) and in [3] (Neutral form (pH 3)) were 492 and 439, respectively.
Take `Cc1ccccc1C1=C2C=CC(=O)C=C2[Si](C)(C)c2cc(O[C@@H]3O[C@H](CO)[C@H](O)[C@H](O)[C@H]3O)ccc21` [2-Me TokyoMagenta βgal]: the “λmax after the reaction” value on β-galactosidase [4] (after β-galactosidase (6 units)) turned out to be 582 nm. Further, the “λmax before the reaction” value on β-galactosidase [4] (before β-galactosidase (6 units)) came out at 448 nm. Besides, at β-galactosidase [5], the “fluorescence response on hydrolysis by β-galactosidase” value is listed as “increase of fluorescence intensity due to red shift”. Moreover, the fluorescence in cells entry at β-galactosidase [6] (HEK293 lacZ(+) cells) was “fluorescence emitted by the fluorescent probe hydrolyzed by β-galactosidase was confirmed”; at β-galactosidase [6] (HEK293 lacZ(−) cells), “fluorescence was not observed”.
Regarding `Cc1ccccc1C1=C2C=CC(=O)C=C2[Si](C)(C)c2cc(O)ccc21` [2-Me TokyoMagenta], the maximal absorption wavelength entry in [7] (acidic side of pH) was “around 471 nm”; in [7] (alkaline side of pH), “around 582 nm”. For the same molecule, the Φfl in data set [7] (anion form) amounted to 0.42; in data set [7] (neutral form) it was 0.10; in [2], 0.42; in [1], 0.42. Moreover, the values for the ε in [7] (anion form) and in data set [7] (neutral form) were 110000 and 29000, respectively. Further, the “fluorescence emission with excitation light of 550 nm” value in data set [7] (shift of pH from the acidic side to the alkaline side) is recorded as “significantly increased”. The λmax is 582 in data set [3] (Anion form (pH 9)) and 471 in data set [3] (Neutral form (pH 3)). In addition, in data set [3] (compared with 2-Me TokyoGreen, pH 3 and 9), the “absorption wavelength change with change of pH” value was “larger absorption wavelength change”. In [2], the λabs was found to be 582 nm. For the same molecule, in data set [2], the λfl was 598 nm. Besides, the pKa (usually the negative logarithm of the acid dissociation constant) in “physchem” is 6.8. For the same molecule, the “λmax, fl” value in [1] is on record as 598 nm. Moreover, the entries for the “λmax, abs” value in data set [1] (pH 3) and in data set [1] (pH 9) were 472 nm and 582 nm, respectively. Also, the “fluorescence intensity around 560 nm” value in data set [8] is on record as “increased”. Further, in data set [8], the “fluorescence intensity around 590 nm” value was “decreased”.
In the case of `COc1ccc(-c2c3ccc(=O)cc-3oc3cc(O[C@@H]4O[C@H](CO)[C@H](O)[C@H](O)[C@H]4O)ccc23)c(C)c1` [2-Me-4-OMe TokyoGreen βgal, 9-(4′-methoxy-2′-methylphenyl)-6-(β-D-galactopyranosyloxy)-xanthen-3-one, reference compound], the “fluorescence response on hydrolysis by β-galactosidase” value at β-galactosidase [5] is reported as “fluorescence was generated by cancellation of PET”.

For the origin of these results see patent publication US9688857B2, “Fluorescent probe” (THE UNIVERSITY OF TOKYO, priority 2011, dated 2017).
